Test results reported in ChEMBL document CHEMBL1201862, “PubChem BioAssay data set” (2004).
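Interpolation was linear, between the two tested concentrations surrounding the appropriate level; five concentrations were tested over 48 hours in 96-well plates. GI50 = concentration required for 50% inhibition of growth.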 Activity calls are given as the source filed them. Rule as the data show it: active = GI50 up to about 1.1 µM and inactive = higher.

Legend:
Assay in all cases: DTP human tumour cell line panel, 48 h
A549 = test system: A549
BT-549 = test system: BT-549
EKVX = test system: EKVX
HCT-116 = test system: HCT-116
HL-60 = test system: HL-60
HOP-62 = test system: HOP-62
MCF7 = test system: MCF7
MDA-MB-231 = test system: MDA-MB-231
NCI-H23 = test system: NCI-H23
RPMI-8226 = test system: RPMI-8226
SF-268 = test system: SF-268
SK-OV-3 = test system: SK-OV-3
SN12C = test system: SN12C
SR = test system: SR
SW-620 = test system: SW-620
TK-10 = test system: TK-10
U-251 = test system: U-251
KM-20L2 = test system: KM-20L2
SNB-78 = test system: SNB-78

Measured: GI50

CC(C)(C)O/N=C/c1cc(NC(=S)c2ccccc2)ccc1Cl
inactive: A549 15.7 µM | BT-549 15.6 µM | EKVX 15.2 µM | HCT-116 12.3 µM | HL-60 16.3 µM | HOP-62 13.7 µM | MCF7 22.9 µM | MDA-MB-231 21.3 µM | NCI-H23 15.6 µM | RPMI-8226 11.5 µM | SF-268 21.1 µM | SK-OV-3 29.4 µM | SN12C 12.2 µM | SR 15.1 µM | SW-620 18.7 µM | TK-10 12.2 µM | U-251 17 µM

CCOC(=O)CCC(NC(=O)c1ccc(Nc2nc3ccccc3nc2C(=O)OCC)cc1)C(=O)OCC (stereo not drawn)
inactive: A549 3.78 µM | BT-549 7.66 µM | EKVX 7.38 µM | HCT-116 2.95 µM | HL-60 > 100 µM | HOP-62 3.89 µM | MCF7 11.3 µM | MDA-MB-231 9.62 µM | NCI-H23 7.52 µM | RPMI-8226 6.76 µM | SF-268 7.71 µM | SK-OV-3 2.47 µM | SN12C 15.7 µM | SR > 39.3 µM | SW-620 5.77 µM | TK-10 2.92 µM | U-251 3.12 µM

CSC1(SC)CCCCCCCCCCC1
inactive: A549 31.6 µM | BT-549 60.3 µM | EKVX 39 µM | HCT-116 17 µM | HL-60 46.3 µM | HOP-62 49.7 µM | MCF7 21.3 µM | MDA-MB-231 41.4 µM | NCI-H23 68.9 µM | RPMI-8226 78.5 µM | SF-268 53.7 µM | SK-OV-3 83.9 µM | SN12C 70 µM | SR 43.7 µM | SW-620 44.6 µM | TK-10 90.2 µM | U-251 32.4 µM

CCOC(=O)C1=C(C)C2C3C(=O)OC(=O)C3C1(C)C1C(=O)OC(=O)C21 (stereo not drawn)
inactive: A549 > 100 µM | EKVX > 100 µM | HCT-116 > 100 µM | HL-60 > 100 µM | HOP-62 > 100 µM | KM-20L2 > 100 µM | NCI-H23 > 100 µM | RPMI-8226 > 100 µM | SF-268 > 100 µM | SK-OV-3 > 100 µM | SN12C > 100 µM | SNB-78 > 100 µM | SW-620 > 100 µM | TK-10 > 100 µM | U-251 > 100 µM

NC(=O)N=C(NCc1ccccc1)NCc1ccccc1
inactive: A549 > 100 µM | EKVX > 100 µM | HCT-116 > 100 µM | HOP-62 > 100 µM | KM-20L2 > 100 µM | NCI-H23 > 100 µM | SF-268 > 100 µM | SK-OV-3 > 100 µM | SN12C > 100 µM | SNB-78 > 100 µM | SW-620 > 100 µM | TK-10 > 100 µM | U-251 > 100 µM

CCOC(=O)N1CC2(C)C=CC1C(C(=O)OC)C2 (stereo not drawn)
inactive: A549 > 100 µM | BT-549 > 100 µM | EKVX > 100 µM | HCT-116 > 100 µM | HL-60 > 100 µM | HOP-62 > 100 µM | MCF7 > 100 µM | MDA-MB-231 > 100 µM | NCI-H23 > 100 µM | RPMI-8226 > 100 µM | SF-268 > 100 µM | SK-OV-3 > 100 µM | SN12C > 100 µM | SR > 100 µM | SW-620 > 100 µM | TK-10 > 100 µM | U-251 > 100 µM

O=c1c2ccccc2c2c1c1c3ccccc3c(=O)c1c1c3ccccc3c(=O)c21
inactive: A549 > 100 µM | BT-549 > 100 µM | EKVX > 100 µM | HCT-116 > 100 µM | HL-60 > 100 µM | HOP-62 > 100 µM | MCF7 > 100 µM | MDA-MB-231 > 100 µM | NCI-H23 > 100 µM | RPMI-8226 > 100 µM | SF-268 > 100 µM | SK-OV-3 > 100 µM | SN12C > 100 µM | SR > 100 µM | SW-620 > 100 µM | TK-10 > 100 µM | U-251 > 100 µM

O=C(/C=N/O)Nc1ccc(Cl)c(I)c1
inactive: A549 26.9 µM | EKVX 10.8 µM | HCT-116 12.9 µM | HL-60 19.3 µM | HOP-62 23.1 µM | KM-20L2 33 µM | NCI-H23 17.8 µM | RPMI-8226 20 µM | SF-268 19.2 µM | SK-OV-3 17.8 µM | SN12C 22.5 µM | SR 15.7 µM | SW-620 34.4 µM | TK-10 33.6 µM | U-251 16.1 µM

OC1=CN=C(C2CC2)Oc2ccccc21
inactive: A549 > 100 µM | EKVX > 100 µM | HCT-116 > 100 µM | HL-60 > 100 µM | HOP-62 > 100 µM | KM-20L2 > 100 µM | NCI-H23 > 100 µM | RPMI-8226 > 100 µM | SF-268 > 100 µM | SK-OV-3 > 100 µM | SN12C > 100 µM | SNB-78 > 100 µM | SW-620 > 100 µM | TK-10 > 100 µM | U-251 > 100 µM
